# Source: patent US4239780A, “Phospholipase A2 inhibition” (The Upjohn Company, priority 1979, dated 1980)
# Structures can show the parent of a compound that is named as a salt.
# Experiments:
# [1] = molecular target: phospholipase A2 (Naja naja, UniProt P15445); conditions: cited from earlier work
# [2] = molecular target: T1, HUMAN PLATELET PHOSPHOLIPASE A2 (Homo sapiens, UniProt P47712); test: inhibition of collagen-induced aggregation of human platelets; type: cell-based; conditions: human platelet rich plasma, read-out: I50 collagen (converted)
# T1 construct: Human blood was drawn from an antecubital vein into 3.8% sodium citrate; endogenous in cells; host or cells: human platelets in citrated plasma (PRP)
# T1 sequence (P47712 1-749): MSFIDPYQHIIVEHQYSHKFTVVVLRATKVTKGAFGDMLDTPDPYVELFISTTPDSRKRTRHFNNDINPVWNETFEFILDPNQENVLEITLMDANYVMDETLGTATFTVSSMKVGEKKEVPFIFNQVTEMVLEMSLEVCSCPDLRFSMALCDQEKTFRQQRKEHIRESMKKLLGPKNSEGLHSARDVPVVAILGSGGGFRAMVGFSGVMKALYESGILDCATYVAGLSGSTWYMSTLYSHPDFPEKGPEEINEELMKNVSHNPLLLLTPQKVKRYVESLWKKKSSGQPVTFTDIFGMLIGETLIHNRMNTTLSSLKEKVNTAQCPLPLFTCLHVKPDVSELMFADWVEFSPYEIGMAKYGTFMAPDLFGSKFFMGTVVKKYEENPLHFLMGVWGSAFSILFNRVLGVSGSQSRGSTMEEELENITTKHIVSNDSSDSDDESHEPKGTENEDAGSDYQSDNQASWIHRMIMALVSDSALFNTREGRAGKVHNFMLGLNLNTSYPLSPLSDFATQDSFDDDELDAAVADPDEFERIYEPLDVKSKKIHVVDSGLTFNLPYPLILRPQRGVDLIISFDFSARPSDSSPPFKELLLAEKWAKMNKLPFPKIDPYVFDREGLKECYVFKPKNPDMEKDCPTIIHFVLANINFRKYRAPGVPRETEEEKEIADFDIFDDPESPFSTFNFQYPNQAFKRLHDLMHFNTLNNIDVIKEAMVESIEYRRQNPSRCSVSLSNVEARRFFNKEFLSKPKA
# Description: The compounds of the present invention were tested for their ability to inhibit collagen-induced aggregation of platelets at 100 μg. per ml. or less. The compounds that were active against collagen-induced aggregation were tested at the I50 dose against arachidonic acid-induced aggregation. Compounds that inhibited collagen-induced aggregation, but not arachidonic acid-induced aggregation, were reported as active phospholipase A2 inhibitors.
# The test was run as follows. Human blood was drawn from an antecubital vein into 3.8% sodium citrate with the final citrate concentration being 0.38%. The blood was transferred to plastic centrifuge tubes and centrifuged at 200×g for 10 min. This yielded […] (PRP). This PRP was allowed to stand for 30 min. for testing at which point it was tested against 400 μg. per ml. of arachidonic acid. […] If the platelets aggregated to arachidonic acid, a dose of collagen that gave a substantial irreversible aggregation (approximately 60-80% transmission) was established. It was then attempted to block the response of collagen with 10 μg. per ml. of indomethacin. […] The ID50 for all unknown compounds was then established. Most of the compounds were tested at rather high concentrations and it was often necessary to place the compound in ethanol into the aggregation cuvet and evaporate the ethanol before testing.
# Those that were reported as active were tested at the ID50 dose against 400 μg per ml. of arachidonic acid. […] The compounds are shown to inhibit phospholipase A2 from humans at low dosages.
# [3] = test system: UV induced erythema; test: UV induced erythema on the skin of guinea pigs; type: in vivo, guinea pig; conditions: for erythema score, 1 hour / erythema score, 2 hours / erythema score, 3 hours / erythema score, 4 hours / erythema score, 24 hours: aggregate score for 3 animals; for erythema score, (After 4 hours) Total Points / erythema score, (After 24 hours) Total Points: aggregate for 3 animals
# Description: Some of the compounds of this invention were tested in vivo for their ability to inhibit the effects of UV induced erythema on the skin of guinea pigs. This is an example of an inflammatory process fulfilling the four pathological requirements of "rubor, calor, dolor, and tumor" i.e., reddening, heat, pain, and edematious swelling in the skin. Administration of the compounds of this invention to guinea pigs whose skin was subsequently exposed to ultraviolet light markedly retarded and in some cases eliminated altogether this inflammatory process. Administration of the compounds of this invention was performed both interparenterally and subcutaneously with equivalent results, thereby eliminating any possiblity of reduction in erthyma due to the so called "counter irritant" effect on the serosal soft surface of the gut.
# The test was carried out as follows: Guinea pigs of the Hartley strain ranging in weight from 250 to 750 gm. were clipped with coarse and fine clippers to remove as much hair as possible from the back or abdomen. They were then treated with a commercial depilatory for six to seven min. after which they were washed with warm water. The animals were then injected I.P. or subcutaneously with solutions or suspensions of the test compounds made up at 0.02 molar concentrations. The dose was 0.3 ml. per 100 gm. of body weight. A control (untreated) group was also maintained. The animals were then held for 30 min. before being exposed as rapidly as possible to ultra-violet light using a Kromayer lamp for 30 sec. A scoring system was developed to quantitate the erythema. The scoring was from 0 to 5 and is described as follows:
# 0=no apparent reddening of the skin
# 0.5=some slight reddening, without a definite border
# 1.0=a discrete pink circle with a definite border
# 2.0=a discrete circle of redness with a definite border more intense than 1.0
# 3.0=same circle with still greater intensity
# 4.0=same circle with a near maximal response but without any raising of the erythematous spot above the level of the surrounding skin
# 5.0=a raised edematous circle with the redness at maximal intensity
# The animals were scored at hourly intervals for the first four hours. The erythema reached a maximum at this time in the control animals. The major difference between results at 4 hr. and those at 24 is the developement of edema and this occurred in some of the animals treated with phospholipase inhibitors without erythema being present. The results of this test are shown in tabular form in Tables VI and VII. The aggregate scores of the animals treated with the designated compounds are recorded at hourly intervals and compared with the control (untreated) scores. As shown by the tables, the method of this invention markedly retarded UV-induced erythema.
# [4] = molecular target: BEE VENOM PHOSPHOLIPASE A2 (Apis mellifera, UniProt P00630); test: biochemical; conditions: pH 8.5, 37° C.
# [5] = molecular target: SNAKE VENOM PHOSPHOLIPASE A2; test: coupled phospholipase A2 / soybean lipoxygenase oxygen consumption assay, snake venom enzyme; type: biochemical; conditions: estimated I50 calculated from a partial inhibition value, pH 8.5, 37° C.
# [6] = molecular target: T2, HOG PANCREAS PHOSPHOLIPASE A2 (Sus scrofa, UniProt P00592); test: coupled phospholipase A2 / soybean lipoxygenase oxygen consumption assay, hog pancreas enzyme; type: biochemical; conditions: estimated I50 calculated from a partial inhibition value, pH 8.5, 37° C.
# T2 construct: from tissue; host or cells: hog pancreas
# [7] = molecular target: phospholipase A2 from venom of Crotalus Adamanteus (Crotalus adamanteus, UniProt P00623); conditions: enzyme from Crotalus Adamanteus venom; cited from earlier work
# [8] = molecular target: phospholipase A2 from venom of bee (Apis mellifera, UniProt P00630); conditions: enzyme from bee venom; cited from earlier work
# [9] = molecular target: T3, phospholipase A2 from pig pancreas (Sus scrofa, UniProt P00592); conditions: enzyme from pig pancreas; cited from earlier work
# T3 construct: host or cells: pig pancreas
# [10] = test system: phospholipase A2 of rabbit polymorphonuclear leukocytes; conditions: cited from earlier work
# [11] = test system: phospholipase A2 derived from perfused guinea pig lung; conditions: enzyme derived from perfused guinea pig lung; cited from earlier work
# phospholipase A2 from venom of bee, sequence (P00630 34-167 limits assumed): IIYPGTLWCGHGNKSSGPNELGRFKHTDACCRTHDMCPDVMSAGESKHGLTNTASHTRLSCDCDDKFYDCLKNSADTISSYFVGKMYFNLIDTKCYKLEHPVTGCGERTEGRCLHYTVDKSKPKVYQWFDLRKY
# UniProt P00630, sequence (P00630 34-167 limits assumed): as above
# T2 sequence (P00592 23-146): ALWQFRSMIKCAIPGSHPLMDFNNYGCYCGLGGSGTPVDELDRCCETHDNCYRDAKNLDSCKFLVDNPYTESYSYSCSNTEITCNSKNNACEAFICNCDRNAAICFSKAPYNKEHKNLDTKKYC
# T3 sequence (P00592 23-146): as above
# phospholipase A2 from venom of Crotalus Adamanteus, sequence (P00623 17-138 limits assumed): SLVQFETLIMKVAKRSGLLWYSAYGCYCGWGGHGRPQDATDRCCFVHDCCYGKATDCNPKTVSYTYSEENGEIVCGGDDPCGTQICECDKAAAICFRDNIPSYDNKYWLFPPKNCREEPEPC
# phospholipase A2, sequence (P15445 whole entry, looked up): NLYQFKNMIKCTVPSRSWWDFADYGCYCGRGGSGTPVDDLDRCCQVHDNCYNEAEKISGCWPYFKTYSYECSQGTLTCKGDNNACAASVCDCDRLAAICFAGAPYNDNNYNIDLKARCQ
compound,measurement,setting,value
O=C(CBr)c1ccc(Br)cc1 [Bromphenacyl bromide],inhibition of phospholipase A2,[1],inhibit phospholipase A2 by acylating a histadine residue
"CO[C@]1(c2ccccc2C)CC[C@@H](NCCCC(=O)c2ccc(F)cc2)CC1 [C, Butyrophenone, 4'-fluoro-4-[(t-4-methoxy-4-o-tolylcyclohexyl)-amino]-, hydrochloride]",IC50,[2],196 µM
same,"erythema score, 1 hour","[3]; intraperitoneal, 23-25.2 mg/kg given 30 min. before UV, control 12",8
same,"erythema score, 2 hours","[3]; intraperitoneal, 23-25.2 mg/kg given 30 min. before UV, control 18",13
same,"erythema score, 3 hours","[3]; intraperitoneal, 23-25.2 mg/kg given 30 min. before UV, control 24",12
same,"erythema score, 4 hours","[3]; intraperitoneal, 23-25.2 mg/kg given 30 min. before UV, control 30",12
same,"erythema score, 24 hours","[3]; intraperitoneal, 23-25.2 mg/kg given 30 min. before UV, control 50",27
same,"erythema score, (After 4 hours) Total Points","[3]; intraperitoneal, 23-25.2 mg/kg, control 78",45
same,"erythema score, (After 24 hours) Total Points","[3]; intraperitoneal, 23-25.2 mg/kg, control 128",72
same,"erythema score, 1 hour","[3]; subcutaneous, 60.9-66.1 mg/kg given 30 min. before UV, control 17",10
same,"erythema score, 2 hours","[3]; subcutaneous, 60.9-66.1 mg/kg given 30 min. before UV, control 23",11
same,"erythema score, 3 hours","[3]; subcutaneous, 60.9-66.1 mg/kg given 30 min. before UV, control 29",9
same,"erythema score, 4 hours","[3]; subcutaneous, 60.9-66.1 mg/kg given 30 min. before UV, control 34",10
same,"erythema score, 24 hours","[3]; subcutaneous, 60.9-66.1 mg/kg given 30 min. before UV, control 56",40
same,"erythema score, (After 4 hours) Total Points","[3]; subcutaneous, 60.9-66.1 mg/kg, control 103",39
same,"erythema score, (After 24 hours) Total Points","[3]; subcutaneous, 60.9-66.1 mg/kg, control 158",79
same,IC50,[4],404 µM
same,IC50,[5],301 µM
same,IC50,[6],11.8 µM
"COc1ccc2c(c1)c(CC(=O)O)c(C)n2C(=O)c1ccc(Cl)cc1 [indomethacin, Indomethacin]",inhibition of phospholipase A2,[7],inactive
same,inhibition of phospholipase A2,[8],inactive
same,inhibition of phospholipase A2,[9],inactive
same,inhibition of phospholipase A2,[10],inhibit phospholipase A2 of rabbit polymorphonuclear leukocytes in dose dependent fashion
CCN(CC)CCCC(C)Nc1c2ccc(Cl)cc2nc2ccc(OC)cc12 (stereo not drawn) [mepacrine],inhibition of phospholipase A2,[11],inhibits the activity of phospholipase A2
